Holding throughout (format): biochemical
One experiment addresses T1, human Tyro3 (Homo sapiens, UniProt Q06418).
T1 construct: GST (N); made in house; host or cells: Sf9 insect cells (baculovirus)
T1 sequence (Q06418 455-890 limits assumed): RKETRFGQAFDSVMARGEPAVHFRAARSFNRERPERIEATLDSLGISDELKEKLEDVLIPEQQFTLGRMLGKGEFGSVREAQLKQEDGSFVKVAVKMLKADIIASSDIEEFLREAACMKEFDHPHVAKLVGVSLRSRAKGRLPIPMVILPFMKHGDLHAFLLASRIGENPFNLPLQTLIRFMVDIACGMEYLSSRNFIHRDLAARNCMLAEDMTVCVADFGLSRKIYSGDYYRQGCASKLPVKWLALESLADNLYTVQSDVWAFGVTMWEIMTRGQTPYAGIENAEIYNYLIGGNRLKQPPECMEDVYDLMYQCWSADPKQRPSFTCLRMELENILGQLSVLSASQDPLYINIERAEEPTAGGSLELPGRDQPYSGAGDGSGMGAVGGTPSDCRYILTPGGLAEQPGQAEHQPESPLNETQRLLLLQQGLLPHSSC
Kind of experiment: Kinase enzymatic activity assay (33P-radiolabeled phosphate transfer), Tyro3. Conditions: recombinant human Tyro3 (455-end), poly(4:1 glu:tyr) substrate, 30 minutes. The source says: (§1) The identification of compounds of the invention as Tyro3, Axl or Mer inhibitors was readily accomplished using the recombinant human Tyro3, Axl and Mer proteins and employing the ^33P-radiolabeled phosphate transfer assay for which the procedure is known to someone skilled in the art or as described in Example 9.
(§2) Recombinant human Tyro3 (455-end, the gene accession number NM_006293), human Axl (473-end, the gene accession number NM_021913) and human Mer (578-872, the gene accession number NM_006343) were independently expressed by baculovirus in Sf9 insect cells using an N-terminal GST tag. The recombinant proteins were stored at −70° C. in a medium containing 50 mM Tris-HCl, pH 7.5, 150 mM NaCl, 10 mM glutathione, 0.1 mM EDTA, 0.25 mM DTT, 0.1 mM PMSF and 25% glycerol. The recombinant proteins were aliquoted into smaller quantities after centrifugation to avoid repeated handling and multiple freeze/thaw cycles for the most favorable performance.
(§3) Kinase Assay Buffer: This buffer solution consisted of the following components: 25 mM MOPS, pH 7.2, 12.5 mM β-glycerol-phosphate, 25 mM MgCl2, 5 mM EGTA, 2 mM EDTA and DTT 0.25 mM which was added prior to use.
(§4) Kinase Dilution Buffer: Kinase Assay Buffer was diluted at a 1:4 ratio (5× dilution) with distilled water.
(§5) [^33P]-ATP assay cocktail: In a designated radioactive working area, a 250 μM [^33P]-ATP assay cocktail was prepared by the addition of the following components: 150 μL of 10 mM ATP stock solution, 100 μL [^33P]-ATP (1 mci/100 μL), and 5.75 mL of kinase assay buffer. This solution was stored in 1 mL aliquots at −20° C.
(§6) ATP stock solution (10 mM): The ATP stock solution was prepared by dissolving 55 mg of ATP in 10 mL of kinase assay buffer. It was stored in 200 μL aliquots at −20° C.
(§7) Active Kinase Stock Solution: The active recombinant kinase protein (0.1 μg/μL) was diluted with Kinase Dilution Buffer and the activity was assayed using a serial dilution method. The specific activity is expressed in nmoL/min/mg.
(§8) Substrates: poly(4:1 glu:tyr) is the substrate used for each kinase Tyro3, Axl and Mer: The peptide substrate was dissolved in water to give the final concentration of 1 mg/mL.
(§9) Test compound solution: Test compound was dissolved in DMSO to obtain a 10 mM solution. The assay solution was prepared by adding 5 μL of this solution to […] of 10% DMSO/water to obtain the final concentration of 50 μM.
(§10) The enzymatic activity of all three kinases was determined as follows. Using a 96-well plate, the wells were divided into three categories: Blank wells, […] and Test wells. In Test wells, 5 μL of the test compound solution and 5 μL of the substrate solution were added. In Control wells, 5 μL of 10% DMSO/water and 5 μL of the substrate solution were added. In Blank wells, 10 μL of 10% DMSO/water was added. To each well was added 10 μL of Active Kinase Stock Solution to make up the volume in each well to 20 μL. All test samples, controls and blanks were run in duplicate. The reaction was initiated by the addition of 5 μL of [^33P]-ATP assay cocktail, bringing the final volume up to 25 μL in every well. The mixture was incubated at room temperature for 30 minutes. The reaction was terminated by transferring 10 μL of the reaction mixture into a Millipore MultiScreen filter plate (cat. number MSPHN6B50). The filter plate was washed in a 1% phosphoric acid solution with constant gentle shaking for 15 minutes and this step was repeated once. After the plate was dried in air, scintillation fluid was added to each well and the radioactivity in each well in CPM was counted by a Microbeta TriLux. The corrected CPM in each test well was determined by subtracting the average value of Blank well values. Percentage of inhibition of the kinase enzymatic activity by the test compound was determined using the following formula: […]
(§11) The IC50 values were determined in a similar way following a serial dilution of the test compound. […]

The target in a further experiment is T2, human Axl (Homo sapiens, UniProt P30530).
T2 construct: GST (N); made in house; host or cells: Sf9 insect cells (baculovirus)
T2 sequence (P30530 473-894 limits assumed): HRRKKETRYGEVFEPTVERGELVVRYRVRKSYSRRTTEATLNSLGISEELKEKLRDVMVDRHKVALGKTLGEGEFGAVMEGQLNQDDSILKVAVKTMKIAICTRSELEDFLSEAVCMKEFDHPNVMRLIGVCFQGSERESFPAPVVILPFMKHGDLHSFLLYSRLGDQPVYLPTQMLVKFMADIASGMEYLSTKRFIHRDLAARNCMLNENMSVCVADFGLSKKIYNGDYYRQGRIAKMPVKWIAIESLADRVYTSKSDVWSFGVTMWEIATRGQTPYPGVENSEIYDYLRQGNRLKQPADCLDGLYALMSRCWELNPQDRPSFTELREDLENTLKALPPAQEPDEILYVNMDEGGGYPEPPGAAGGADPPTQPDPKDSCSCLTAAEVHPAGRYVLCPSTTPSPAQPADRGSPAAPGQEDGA
Kind of experiment: Kinase enzymatic activity assay (33P-radiolabeled phosphate transfer), Axl. Conditions: recombinant human Axl (473-end), poly(4:1 glu:tyr) substrate, 30 minutes.
From the text: as §1, §2, §3, §4, §5, §6, §7, §8, §9, §10, §11

The target of the next experiment is T3, human Mer (Homo sapiens, UniProt Q12866).
T3 construct: GST (N); made in house; host or cells: Sf9 insect cells (baculovirus)
T3 sequence (Q12866 578-872): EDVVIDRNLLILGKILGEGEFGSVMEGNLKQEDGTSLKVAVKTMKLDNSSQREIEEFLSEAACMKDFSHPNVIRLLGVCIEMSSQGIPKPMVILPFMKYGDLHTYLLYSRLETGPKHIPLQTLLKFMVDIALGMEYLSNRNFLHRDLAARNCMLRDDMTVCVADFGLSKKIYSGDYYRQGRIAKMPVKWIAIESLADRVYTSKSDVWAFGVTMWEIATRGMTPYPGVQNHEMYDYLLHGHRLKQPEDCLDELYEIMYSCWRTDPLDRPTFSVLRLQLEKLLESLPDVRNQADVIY
Kind of experiment: Kinase enzymatic activity assay (33P-radiolabeled phosphate transfer), Mer. Conditions: recombinant human Mer (578-872), poly(4:1 glu:tyr) substrate, 30 minutes.
From the text: as §1, §2, §3, §4, §5, §6, §7, §8, §9, §10, §11

SMILES strings stand for the structures. pIC50: −log10 of the molar value. A value given as a limit tells only on which side of the number the result lay.

Usually pIC50 stands for the IC50 on a negative log10 scale, so that one unit is a factor of ten. Consider `COC(=O)Cc1cccc(Oc2ncnc3cc(OCCN4CCN(C)CC4)cc(OC4CCOCC4)c23)c1` [Example 2.31, methyl 2-(3-((7-(2-(4-methylpiperazin-1-yl)ethoxy)-5-((tetrahydro-2H-pyran-4-yl)oxy)quinazolin-4-yl)oxy)phenyl)acetate], for which the values for the pIC50 at human Tyro3, at human Axl and on human Mer were 6.00 to 6.30, 5.00 to 6.00 and below 5.00, respectively.
Turning to `CN1CCN(CCOc2cc(OC3CCOCC3)c3c(Oc4cccc(C(=O)NCc5ccccc5)c4)ncnc3c2)CC1` [Example 2.32, N-benzyl-3-((7-(2-(4-methylpiperazin-1-yl)ethoxy)-5-((tetrahydro-2H-pyran-4-yl)oxy)quinazolin-4-yl)oxy)benzamide], the results for the pIC50 on human Tyro3, on human Axl and on human Mer were below 5.00, 5.00 to 6.00 and below 5.00, respectively.
In the case of `CN1CCN(CCOc2cc(OC3CCOCC3)c3c(Oc4cccc(CC(=O)NCc5ccccc5)c4)ncnc3c2)CC1` [Example 2.33, N-benzyl-2-(3-((7-(2-(4-methylpiperazin-1-yl)ethoxy)-5-((tetrahydro-2H-pyran-4-yl)oxy)quinazolin-4-yl)oxy)phenyl)acetamide], the pIC50 on human Tyro3 was 6.00 to 6.30; on human Axl, 5.00 to 6.00; at human Mer it was below 5.00.
Turning to `COc1cc(OCC2CCN(C)CC2)cc2ncnc(Oc3ccc(F)cc3Cl)c12` [Example 2.34, 4-(2-chloro-4-fluorophenoxy)-5-methoxy-7-((1-methylpiperidin-4-yl)methoxy)quinazoline], the pIC50 at human Tyro3 was above 6.30; on human Axl it was 5.00 to 6.00; at human Mer, 6.00 to 6.30.
For `Cc1cc(Nc2ncnc3cc(OCCCN4CCOCC4)cc(OC4CCOCC4)c23)on1` [Example 2.35, 3-methyl-N-(7-(3-morpholinopropoxy)-5-((tetrahydro-2H-pyran-4-yl)oxy)quinazolin-4-yl)isoxazol-5-amine], in that order: below 5.00, 5.00 to 6.00 and 5.00 to 6.00.
`Cc1nnc(Nc2ncnc3cc(OCC4CCN(C)CC4)cc(OC4CCOCC4)c23)s1` [Example 2.36, 5-methyl-N-(7-((1-methylpiperidin-4-yl)methoxy)-5-((tetrahydro-2H-pyran-4-yl)oxy)quinazolin-4-yl)-1,3,4-thiadiazol-2-amine]: the values for the pIC50 at human Tyro3, on human Axl and on human Mer were below 5.00, 5.00 to 6.00 and 5.00 to 6.00, respectively.
With `CN1CCC(COc2cc(OC3CCOCC3)c3c(Nc4nnc(C(F)(F)F)s4)ncnc3c2)CC1` [Example 2.37, N-(7-((1-methylpiperidin-4-yl)methoxy)-5-((tetrahydro-2H-pyran-4-yl)oxy)quinazolin-4-yl)-5-(trifluoromethyl)-1,3,4-thiadiazol-2-amine], the pIC50 was below 5.00 on human Tyro3, 5.00 to 6.00 on human Axl and below 5.00 on human Mer.
In the case of `CN1CCC(COc2cc(OC3CCOCC3)c3c(Nc4nncs4)ncnc3c2)CC1` [Example 2.38, N-(7-((1-methylpiperidin-4-yl)methoxy)-5-((tetrahydro-2H-pyran-4-yl)oxy)quinazolin-4-yl)-1,3,4-thiadiazol-2-amine], the values for the pIC50 at human Tyro3, on human Axl and at human Mer were 5.00 to 6.00, above 6.30 and 6.00 to 6.30, respectively.
For `CN1CCC(COc2cc(OC3CCOCC3)c3c(Nc4nccs4)ncnc3c2)CC1` [Example 2.39, N-(7-((1-methylpiperidin-4-yl)methoxy)-5-((tetrahydro-2H-pyran-4-yl)oxy)quinazolin-4-yl)thiazol-2-amine], in that order: 6.00 to 6.30, above 6.30 and above 6.30.
On to `Cc1cc(Nc2ncnc3cc(OCC4CCN(C)CC4)cc(OC4CCOCC4)c23)on1` [Example 2.40, 3-methyl-N-(7-((1-methylpiperidin-4-yl)methoxy)-5-((tetrahydro-2H-pyran-4-yl)oxy)quinazolin-4-yl)isoxazol-5-amine], for which the results for the pIC50 on human Tyro3, on human Axl and at human Mer were 5.00 to 6.00, above 6.30 and 5.00 to 6.00, respectively.
Consider `COCCN1CCN(c2cc(OC3CCOCC3)c3c(Nc4nc(C(F)(F)F)cs4)ncnc3c2)CC1` [Example 2.41, N-(7-(4-(2-methoxyethyl)piperazin-1-yl)-5-((tetrahydro-2H-pyran-4-yl)oxy)quinazolin-4-yl)-4-(trifluoromethyl)thiazol-2-amine], for which the pIC50 on human Tyro3 is below 5.00; on human Axl, 5.00 to 6.00; at human Mer it was below 5.00.
Consider `Cc1csc(Nc2ncnc3cc(OCC4CCN(C)CC4)cc(OC4CCOCC4)c23)n1` [Example 2.42, 4-methyl-N-(7-((1-methylpiperidin-4-yl)methoxy)-5-((tetrahydro-2H-pyran-4-yl)oxy)quinazolin-4-yl)thiazol-2-amine], for which the pIC50 on human Tyro3 is 5.00 to 6.00; on human Axl, above 6.30; on human Mer it was above 6.30.
Regarding `Cc1cnc(Nc2ncnc3cc(OCC4CCN(C)CC4)cc(OC4CCOCC4)c23)s1` [Example 2.43, 5-methyl-N-(7-((1-methylpiperidin-4-yl)methoxy)-5-((tetrahydro-2H-pyran-4-yl)oxy)quinazolin-4-yl)thiazol-2-amine], the pIC50 was 5.00 to 6.00 at human Tyro3, above 6.30 at human Axl and above 6.30 on human Mer.

The values above are taken from US9771333B2, “Quinazoline derivatives as TAM family kinase inhibitors” (SIGNALCHEM LIFESCIENCES CORP., priority 2013, dated 2017).
